Laboratory results taken from US7067658B2, “Pyridino and pyrimidino pyrazinones” (Bristol-Myers Squibb Company, priority 2002, dated 2006).
Like-named read-outs stand apart in the source and are kept apart here.

Molecular target: T1, cloned human CRF1 receptors (Homo sapiens, UniProt P34998)
T1 construct: the coding region is amplified by PCR from start to stop codons; expressed in transfected cells; host or cells: 293EBNA cells (episomal vector phchCRFR, hygromycin selection); membrane homogenate
T1 sequence (P34998 24-415): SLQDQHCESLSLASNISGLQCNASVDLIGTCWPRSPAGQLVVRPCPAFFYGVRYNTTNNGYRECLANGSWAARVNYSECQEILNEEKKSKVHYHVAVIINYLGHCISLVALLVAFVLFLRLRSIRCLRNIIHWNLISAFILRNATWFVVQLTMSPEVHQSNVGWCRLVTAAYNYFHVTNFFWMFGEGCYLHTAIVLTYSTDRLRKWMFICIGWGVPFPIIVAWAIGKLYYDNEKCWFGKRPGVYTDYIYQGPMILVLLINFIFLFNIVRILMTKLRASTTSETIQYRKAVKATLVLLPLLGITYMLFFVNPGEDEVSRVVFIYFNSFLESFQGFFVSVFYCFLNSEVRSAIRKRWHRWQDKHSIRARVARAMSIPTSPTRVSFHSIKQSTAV
Test: CRF1 receptor binding assay (inhibition of 125I-ovine-CRF binding to membranes of 293EBNA cells transfected with hCRFR1)
From the text: Provided herein is an example of a CRF1 receptor binding assay that can be used for the evaluation of biological activity of compounds of the present invention. The example also includes isolation of cell membranes containing cloned human CRF1 receptors for use in the binding assay.
Messenger RNA is isolated from human hippocampus by standard techniques. The mRNA is reverse transcribed using oligo (dt) 12–18 and the coding region is amplified by PCR from start to stop codons The resulting PCR fragment is cloned into the EcoRV site of pGEMV, from whence the insert is reclaimed using XhoI+XbaI and cloned into the XhoI+XbaI sites of vector pm3ar (which contains a CMV promoter, the SV40 ‘t’ splice and early poly A signals, an Epstein-Barr viral origin of replication, and a hygromycin selectable marker). […] Cells surviving 4 weeks of selection in hygromycin are pooled, adapted to growth in suspension, and used to generate membranes for the binding assay described below. Individual aliquots containing approximately 1×10^8 of the suspended cells are then centrifuged to form a pellet and frozen.
The homogenate is centrifuged at 40,000×g for 12 min and the resulting pellet rehomogenized in 10 mL of tissue buffer. After another centrifugation at 40,000×g for 12 min, the pellet is resuspended to a protein concentration of 360 μg/ml to be used in the assay.
Binding assays are performed in 96 well plates; each well having a 300 μL capacity. […] Plates are then allowed to incubate at room temperature for 2 hours before filtering the incubate over GF/F filters (presoaked with 0.3% polyethyleneimine) using an appropriate cell harvester. Filters are rinsed 2 times with ice cold assay buffer before removing individual filters and assessing them for radioactivity on a gamma counter.

[1] = IC50 ranges, class symbols a-e, read-out: IC50 Range* (potency of binding to CRF1 receptor)
[2] = IC50 ranges as class symbols a-e, read-out: IC50 Range* (potency of binding to CRF1 receptor)

IC50 [1]	SMILES	further results
10 to 100 nM	CCCC(C)n1c(=O)c(C)nc2c(-c3ccc(Cl)cc3Cl)ccnc21 (racemic) [Example 2, (R,S)-8-(2,4-dichloro-phenyl)-2-methyl-4-(1-methyl-butyl)-4H-pyrido[2,3-b]pyrazin-3-one]	
1 to 10 nM	CCCC(C1CC1)n1c(=O)c(C)nc2c(-c3ccc(Cl)cc3Cl)ccnc21 (racemic) [Example 5, (R,S)-4-(1-cyclopropyl-butyl)-8-(2,4-dichloro-phenyl)-2-methyl-4H-pyrido[2,3-b]pyrazin-3-one]	
1 to 10 nM	CCC(COC)n1c(=O)c(C)nc2c(-c3ccc(Cl)cc3Cl)ccnc21 (racemic) [Example 10, (R,S)-8-(2,4-dichloro-phenyl)-4-(1-methoxymethyl-propyl)-2-methyl-4H-pyrido[2,3-b]pyrazin-3-one]	
1 to 10 nM	CCCC(C1CC1)n1c(=O)c(C)nc2c(-c3ccc(OC)cc3C)ccnc21 (racemic) [Example 69, (R,S)-4-(1-cyclopropyl-butyl)-8-(4-methoxy-2-methyl-phenyl)-2-methyl-4H-pyrido[2,3-b]pyrazin-3-one]	
100 to 1000 nM	CCCCC(CC)n1c(=O)c(C)nc2c(-c3ccc(OC)nc3C)ccnc21 (racemic) [Example 97, (R,S)-4-(1-ethyl-pentyl)-8-(6-methoxy-2-methyl-pyridin-3-yl)-2-methyl-4H-pyrido[2,3-b]pyrazin-3-one]	
10 to 100 nM	CCCC(C1CC1)n1c(=O)c(C)nc2c(-c3ccc(OC)nc3C)ccnc21 (racemic) [Example 101, (R,S)-4-(1-cyclopropyl-butyl)-8-(6-methoxy-2-methyl-pyridin-3-yl)-2-methyl-4H-pyrido[2,3-b]pyrazin-3-one]	
10 to 100 nM	CCC(C)n1c(=O)c(C)nc2c(-c3ccc(OC(F)F)cc3Cl)ccnc21 (racemic) [Example 113, (R,S)-4-sec-butyl-8-(2-chloro-4-difluoromethoxy-phenyl)-2-methyl-4H-pyrido[2,3-b]pyrazin-3-one]	
1 to 10 nM	CCCC(C1CC1)n1c(=O)c(C)nc2c(-c3ccc(OC(F)F)cc3Cl)ccnc21 (racemic) [Example 117, (R,S)-8-(2-Chloro-4-difluoromethoxy-phenyl)-4-(1-cyclopropyl-butyl)-2-methyl-4H-pyrido[2,3-b]pyrazin-3-one]	
100 to 1000 nM	CCC(C)n1c(=O)c(C)nc2c(-c3ccc(Cl)cc3Cl)ncnc21 (racemic) [Example 546, (R,S)-8-sec-Butyl-4-(2,4-dichloro-phenyl)-6-methyl-8H-pteridin-7-one]	
> 1000 nM	Cc1nc2c(-c3ccc(Cl)cc3Cl)ccnc2n(CC(C)C)c1=O [Example 1, (R,S)-8-(2,4-dichloro-phenyl)-4-isobutyl-2-methyl-4H-pyrido[2,3-b]pyrazin-3-one]	
1 to 10 nM	CCCC(CCC)n1c(=O)c(C)nc2c(-c3ccc(OC)cc3Cl)ccnc21 [Example 18, (R,S)-8-(2-chloro-4-methoxy-phenyl)-2-methyl-4-(1-propyl-butyl)-4H-pyrido[2,3-b]pyrazin-3-one]	
	CCC(COC)n1c(=O)c(C)nc2c(-c3cc(F)c(OC)cc3Cl)ccnc21 (stereo not shown) [Example 250, 8-(2-Chloro-5-fluoro-4-methoxy-phenyl)-4-(1-methoxymethyl-propyl)-2-methyl-4H-pyrido[2,3-b]pyrazin-3-one]	IC50 (Potency of binding to CRF1 receptor, listed as IC50 ranges, read-out: IC50 Range*): 1 to 10 nM
	CCC(C1CC1)n1c(=O)c(C)nc2c(-c3cc(Cl)c(OC)cc3C)ccnc21 (stereo not shown) [Example 452, 8-(5-Chloro-4-methoxy-2-methyl-phenyl)-4-(1-cyclopropyl-propyl)-2-methyl-4H-pyrido[2,3-b]pyrazin-3-one]	IC50 [2]: < 1 nM
	CCC(COC)n1c(=O)c(C)nc2c(-c3cc(Cl)c(OC)cc3C)ccnc21 (stereo not shown) [Example 459, 8-(5-Chloro-4-methoxy-2-methyl-phenyl)-4-(1-methoxymethyl-propyl)-2-methyl-4H-pyrido[2,3-b]pyrazin-3-one]	IC50 [2]: 1 to 10 nM
	CCC(C1CC1)n1c(=O)c(C)nc2c(-c3cc(C)c(OC)cc3Cl)ccnc21 (stereo not shown) [Example 484, 8-(2-Chloro-4-methoxy-5-methyl-phenyl)-4-(1-cyclopropyl-propyl)-2-methyl-4H-pyrido[2,3-b]pyrazin-3-one]	IC50 [2]: < 1 nM
	CCC(COC)n1c(=O)c(C)nc2c(-c3cc(C)c(OC)cc3Cl)ccnc21 (stereo not shown) [Example 491, 8-(2-Chloro-4-methoxy-5-methyl-phenyl)-4-(1-methoxymethyl-propyl)-2-methyl-4H-pyrido[2,3-b]pyrazin-3-one]	IC50 [2]: < 1 nM
	CCC(C1CC1)n1c(=O)c(C)nc2c(-c3cc(F)c(N(C)C)cc3Cl)ccnc21 (stereo not shown) [Example 500, 8-(2-Chloro-4-dimethylamino-5-fluoro-phenyl)-4-(1-cyclopropyl-propyl)-2-methyl-4H-pyrido[2,3-b]pyrazin-3-one]	IC50 [2]: < 1 nM
	COCC(C)n1c(=O)c(C)nc2c(-c3cc(F)c(N(C)C)cc3Cl)ccnc21 (stereo not shown) [Example 506, 8-(2-Chloro-4-dimethylamino-5-fluoro-phenyl)-4-(2-methoxy-1-methyl-ethyl)-2-methyl-4H-pyrido[2,3-b]pyrazin-3-one]	IC50 [2]: 1 to 10 nM
	CCC(COC)n1c(=O)c(C)nc2c(-c3cc(F)c(N(C)C)cc3Cl)ccnc21 (stereo not shown) [Example 507, 8-(2-Chloro-4-dimethylamino-5-fluoro-phenyl)-4-(1-methoxymethyl-propyl)-2-methyl-4H-pyrido[2,3-b]pyrazin-3-one]	IC50 [2]: < 1 nM
1 to 10 nM	CCCC(CCC)n1c(=O)c(C)nc2c(-c3ccc(OC)cc3Cl)ncnc21 [Example 563, 4-(2-Chloro-4-methoxy-phenyl)-6-methyl-8-(1-propyl-butyl)-8H-pteridin-7-one]	
	Cc1nc2c(-c3ccc(OC(F)(F)F)cc3Cl)ncnc2n(C(C)C2CC2)c1=O (stereo not shown) [Example 1062, 4-(2-Chloro-4-trifluoromethoxy-phenyl)-8-(1-cyclopropyl-ethyl)-6-methyl-8H-pteridin-7-one]	IC50 (IC50 ranges as class symbols a-e, read-out: IC50 Range (potency of binding to CRF1 receptor)): 100 to 1000 nM
1 to 10 nM	CCC(C1CCC1)n1c(=O)c(C)nc2c(-c3ccc(OC)cc3Cl)ccnc21 (stereo not shown) [compound 23]	
10 to 100 nM	COCC(C)n1c(=O)c(C)nc2c(-c3ccc(OC)cc3Cl)ccnc21 (stereo not shown) [compound 25]	
> 1000 nM	COCC(C)n1c(=O)c(C)nc2c(-c3ccc(OC)nc3C)ncnc21 (stereo not shown) [compound 650]	

SMILES	IC50 [1]	further results
COCC(C)n1c(=O)c(C)nc2c(-c3ccc(Cl)cc3Cl)ccnc21 (racemic) [Example 9, (R,S)-8-(2,4-dichloro-phenyl)-4-(2-methoxy-1-methyl-ethyl)-2-methyl-4H-pyrido[2,3-b]pyrazin-3-one]	10 to 100 nM	
